Among the data in the NIST ThermoML archive (doi:10.1016/j.tca.2018.05.015) are mass density and Triple point temperature values, retold here.

For this data set the following is noted: for mass density: 101.33 kPa, X-ray diffraction; for Triple point temperature: DSC.

Numbers after ± are expanded uncertainties.

What is called mass density is the mass of a sample divided by its volume. For the compound `CC(C)(C#N)N=NC(C)(C)C#N` [2,2'-dimethyl-2,2'-azodipropionitrile], the mass density (346.15 K, Crystal 2) is listed as 1100 ± 22 kg/m3 and the mass density (356.15 K, Crystal 1) is listed as 1096 ± 22 kg/m3. Besides, the Triple point temperature by setting is: (Crystal 1) 373.15 ± 5 K; (Crystal 2) 351.15 ± 5 K.
